From US7749709B2, “SOCS-1 gene methylation in cancer” (The Johns Hopkins University School of Medicine, priority 2001, dated 2010)
Entries after “also recorded” stand apart in the source; their conditions may differ. Where two headings read alike, the source gives them in different places.

What was measured:
[1] = tested on: patients with AML and myelodysplastic syndrome; conditions: cited from earlier work
SOCS-1 gene expression = experiment: Semi-quantitative RT-PCR of SOCS-1 expression in MM cell lines; type: cell-based, human; conditions: 1 μM for 96 hr
Method: (§1) For gene expression studies, U266 and XG1 cells were incubated in complete culture medium with a final concentration of 1.0 μM 5-azacytidine (Sigma). After 4 days, drug-treated and untreated cells were harvested and subjected to RNA extraction. In order to assess the sensitivity to AG490, cell lines K562, U266 and XG1 were incubated with or without a final concentration of 50 μM AG490 for 4 days prior to analysis. For STAT3 phosphorylation analysis, cell lines U266 and XG1 were initially starved for 16 hr in culture medium supplemented with only 1% FCS and no cytokine. Cells were then washed in cold PBS and resuspended in their appropriate complete medium with or without 50 μM AG490 and samples were harvested for protein analysis after 1 hr and 24 hr.
Total RNA was isolated using a commercially available kit (Qiagen) according to the manufacturer's instructions. Approximately 3 μg RNA per sample were reverse transcribed with SuperScript™ reverse transcriptase (Invitrogen). For PCR, 1 μl of the cDNA preparation was amplified using the following SOCS-1 primers: […]
Reactions were hot-started at 95° C. for 5 min and held at 80° C. before addition of 1.25 U of Taq polymerase (Invitrogen Corp.). […]

STAT3 [2] = experiment: Western blot analysis of STAT3 tyrosine phosphorylation in HCC cell lines treated with AG490; type: cell-based, human; conditions: 25 μM AG490 for 3 hr or 24 hr
Method: Cells at approximately 70% confluence were harvested and lysed on ice in a buffer containing 20 mM Tris (pH 8.0), 1% NONIDET P-40 detergent, 0.1% SDS, 150 mM NaCl, 50 mM NaF, 1 mM Na3VO4, 10 μg/ml leupeptin, 10 μg/ml aprotinin, 1 μg/ml pepstatin, and 1 mM phenylmethylsulfonyl fluoride. Following incubation for 30 min on ice, the lysates were cleared of debris by centrifugation at 15,000×g for 30 min. Eight hundred μg of protein lysates were incubated with 5 μg anti-JAK2 antibody (Upstate Biotechnology; Waltham Mass.) for 1 hr on ice. Thirty μl protein A+G (Oncogene Research Products; Boston Mass.) was added to the lysates and incubated for 1 hr at 4° C. with rotation.
Immune complexes were recovered by centrifugation, washed 5 times with the lysis buffer, then boiled for 5 min in SDS-PAGE sample buffer. The samples were resolved by SDS-PAGE, and electroblotted onto a nitrocellulose membrane. The blot was blocked with 5% skim milk in PBS for 1 hr at room temperature (RT), then incubated with 1 μg/ml of anti-phosphotyrosine antibody (4G10; Upstate biotechnology) over night at 4° C.
After several washes, a 1:5000 dilution of anti-mouse horseradish peroxidase-conjugated secondary antibody (Amersham Pharmacia Biotech) was added and incubated for 1 hr at RT. After several washes, the immunoreactive bands were visualized by an enhanced chemiluminescence substrate (Amersham Pharmacia Biotech) and exposed to HYPERFILM film (Amersham Pharmacia Biotech). The blot was stripped with a buffer composed of 62.5 mM Tris (pH 6.8), 2% SDS and 100 mM θ-mercaptoethanol at 50° C. for 30 min, washed, blocked with 5% milk in PBS, then re-probed with the anti-JAK2 antibody (Upstate Biotechnology).
To analyze inhibition of STAT3 by AG490, cells were treated with 25 μM AG490 for 3 hr or 24 hr. Eighty μg total protein samples from drug treated and untreated cells were separated by SDS-PAGE, and analyzed by western blot analysis. Anti-phospho-STAT3 antibody (New England Biolabs) was used to detect tyrosine phosphorylation of STAT3 according to the conditions recommended by the manufacturer. […]

STAT3 [3] = experiment: Western blot analysis of STAT tyrosine phosphorylation in SOCS-1 methylated leukemia cells; type: cell-based, human; conditions: cell line with SOCS-1 methylation, following treatment with AG490
Method: (§2) Western blot analysis was performed as described in Example 1. Blots were stained using anti-phospho-STAT1, anti-phospho-STAT3 or anti-phospho-STAT5 antibody (New England Biolabs) to detect tyrosine phosphorylation of STAT protein. After removing the antibody, the blot was analyzed using anti-STAT1, anti-STAT3 or anti-STAT5 antibody, respectively (BD Transduction Laboratories).

STAT1 = experiment: as above; type: cell-based, human; conditions: cell line with SOCS-1 methylation, following treatment with AG490
Method: as §2

STAT5 = experiment: as above; type: cell-based, human; conditions: cell line with SOCS-1 methylation, following treatment with AG490
Method: as §2

normal liver cells = experiment: Effect of AG490 on normal liver cells; type: cell-based
leukemic Sezary cells = conditions: cited from earlier work
ALL = conditions: cited from earlier work
[4] = tested on: HCC cells exhibiting methylation silenced SOCS-1 gene expression; experiment: Colony formation assay with AG490; type: cell-based, human; conditions: 5 μM AG490 for 3 weeks
Method: For AG490 treatment, 1×10^4 cells were plated in 100 mm tissue culture dishes, and grown in complete medium in the absence or presence of 5 μM AG490 for 3 weeks. In some experiments, cells were treated with 25 μM AG490 for 3 hr or 24 hr.

XG1 cells = experiment: Flow cytometric analysis of apoptosis (annexin V binding, PI counterstaining); type: cell-based, human; conditions: 50 μM AG490, 96 hr; SOCS-1 hypermethylated
Method: as §1
(§3) Apoptosis was assessed by annexin V binding and counterstaining with propidium iodide (PI) using a commercially available kit (Pharmingen) according to the manufacturer's instructions. Fluorescence analysis was performed on a BD LSR flow cytometer (Becton Dickinson).

U266 cells = experiment: as above; type: cell-based, human; conditions: 50 μM AG490, 96 hr; SOCS-1 hypermethylated
Method: as §1, §3

K562 cells = experiment: as above; type: cell-based, human; conditions: 50 μM AG490, 96 hr; no SOCS-1 methylation
Method: as §1, §3

[5] = tested on: normal haematopoietic progenitor cells; conditions: at concentrations similar to those used in the present studies; cited from earlier work
HL60 = experiment: Flow cytometric analysis of apoptosis in AML cell line; type: cell-based, human; conditions: 50 μM AG490, 96 hr; SOCS-1 not methylated
Method: (§4) HL60 cells were obtained from the American Type Culture Collection and KG1a cells from the German Collection of Microorganisms and Cell Cultures. Both cell lines were routinely cultured in IMDM (Invitrogen Corp.) with 20% FCS (Gemini Bio-Products). In order to assess the sensitivity to AG490, HL60 and KG1a cells were incubated with or without a final concentration of 50 μM AG490 (Sigma) for 96 hr prior to analysis.
(§5) The percentage of apoptotic cells was determined by annexin V-binding and counterstaining with propidium iodide (PI), and fluorescence analysis was performed as described in Example 2.

KG1a = experiment: as above; type: cell-based, human; conditions: 50 μM AG490, 96 hr; SOCS-1 CpG island methylated
Method: as §4, §5

[6] = tested on: B cell leukemia cells, in which JAK2 was constitutively activated; conditions: cited from earlier work
STAT3 [7] = experiment: Western blot analysis of STAT3 phosphorylation in MM cell lines; type: cell-based, human; conditions: 50 μM AG490, 1 hr and 24 hr
Method: as §1
Cell lysis and western blot analysis for STAT3 phosphorylation were performed as described in Example 1 (see, also, Yoshikawa et al., supra, 2001).

STAT3 [8] = conditions: MM cell line XG2; cited from earlier work
myeloma cells = conditions: cited from earlier work

In the case of `Nc1ncn([C@H]2C[C@H](O)[C@@H](CO)O2)c(=O)n1` [5-aza-2′-deoxycytidine], the clinical efficacy [1] is given as “clinically effective”, the SOCS-1 gene expression (SOCS-1 gene expression; U266 cells) is given as “reactivation of SOCS-1 gene expression” and the SOCS-1 gene expression (SOCS-1 gene expression; XG1 cells) is given as “reactivation of SOCS-1 gene expression”.

For `N#C/C(=C/c1ccc(O)c(O)c1)C(=O)NCc1ccccc1` [AG490], the STAT3 phosphorylation (STAT3 [2]; HuH-1 cells (SOCS-1 inactivated, JAK2 activated)) was “time dependent reduction in STAT3 phosphorylation”, the STAT3 phosphorylation (STAT3 [2]; SNU-387 cells (SOCS-1 inactivated, JAK2 activated)) was “time dependent reduction in STAT3 phosphorylation” and the STAT3 phosphorylation (STAT3 [2]; SOCS-1 expressing SNU-182 cells) was “but not in the SOCS-1 expressing SNU-182 cells”. The “tyrosine phosphorylation of STAT3” value (STAT3 [3]) was “decreased”, the “tyrosine phosphorylation of STAT1” value (STAT1) was “decreased” and the “tyrosine phosphorylation of STAT5” value (STAT5) was “no change”. For the same compound, the “effect on normal liver cells” value (normal liver cells) was “no effect”, the apoptosis induction (leukemic Sezary cells) was “induces apoptosis” and the “effectiveness in the treatment of ALL” value (ALL) was “effectiveness”. For the same compound, the “growth suppression (number of colonies)” value [4] was “effectively suppressed the growth”, the apoptosis induction (XG1 cells) was “induced apoptosis” and the apoptosis induction (U266 cells) was “induced apoptosis”. The apoptosis induction (K562 cells) was “only a small effect”, the “growth of normal haematopoietic progenitor cells” value [5] was “does not suppress the growth” and the apoptosis induction (HL60) was “no effect; also recorded: only weak induction of apoptosis”. For the same compound, the apoptosis induction (KG1a) was “induced apoptosis”, the “growth of B cell leukemia cells” value [6] was “suppress growth” and the STAT3 phosphorylation (STAT3 [7]; U266 cells) was “inhibited STAT3 phosphorylation”. The STAT3 phosphorylation (STAT3 [7]; XG1 cells) was “only minor effects”, the STAT3 phosphorylation (STAT3 [8]) was “inhibition of STAT3 phosphorylation” and the apoptosis induction (myeloma cells) was “induces apoptosis”.
